Measured values as given in PubChem BioAssay (NCI).
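Protocol summary: plate cells (96-well), add compound at 5 concentrations, incubate 48 h, interpolate endpoints linearly. GI50 is the concentration that inhibits growth by half. TGI: total growth inhibition.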

Test system: 786-0 renal
Experiment: NCI anticancer screen, dose series, 48 h

SMILES	GI50 [µM]	TGI [µM]
COc1ccc(C2[C@@H](Cl)C(=O)N2c2cc(OC)c(OC)c(OC)c2)cc1Cl (stereo partly specified)	0.0389	10.1
CCOC(=O)C(=O)Nc1cc(Cl)ccc1Cl	–	> 100
N#Cc1ccc(N=Cc2c([O-])ccc3ccccc23)cc1.[C-]#[O+].[C-]#[O+].[Ir]	14.3	28
[N-]=[N+]=C1C(=O)C2CC3CC(C2)CC1C3	–	> 100
COC(=O)CC1NC(=O)C1C1(C)OCCO1 (stereo unspecified)	–	> 100
COC(CN1C=C(Sc2ccccc2)CC1)OC	–	> 100
CN(C)CCC(/C=C/c1ccccc1)=N\Nc1ccc(Cl)cc1Cl	–	26.1
COc1ccc(C=O)c(NC(=O)C(C)C)c1	–	> 100
Cc1cc2c(c(C(=O)O)c1C)-c1cccc(F)c1C2=O	–	> 100
Cc1ccc(S(=O)OC2C3CC4CC(C3)CC2C4)cc1 (stereo unspecified)	–	> 100
CN(C)c1ccc(/C=C2\C=Cc3ccccc32)cc1	–	> 100
COc1cc2nc(NCCCCCNC(=O)c3ccco3)nc(N)c2cc1OC	–	49
Cc1c(C2=C(c3cn(C)c4ccccc34)C(=O)NC2=O)c2ccccc2n1C	3.56	> 25
C/C=C(\C)c1cc(O)c(C)c2c1Oc1cc(O)c(Cl)c(C)c1C(=O)O2	–	49.2
COC(=O)C(C)(C)N=CN(C)C	–	> 100
Cc1cc(N(CCC#N)CCC#N)ccc1/C=C1/N=C(c2ccccc2)N(N)C1=O	–	> 100
CN1CCN(CC(O)COc2c(Br)c(Br)c(Br)c3c2OC(C)(C)C3)CC1 (stereo unspecified)	3.08	14.6
CCOC1=C2N=C(Cc3ccccc3F)N=C2C(=O)c2ccccc21	–	> 100
CNS(=O)(=O)NNS(=O)(=O)c1ccc(Cl)cc1	–	> 100
C=C1CCC2[C@@H](CCC3[C@]2(C)CCC[C@]3(C)C(=O)OC)[C@@H]1CC=O (stereo partly specified)	–	> 100
CCCCCCCCCCCCCP(=O)(O)NCC(N)=O	–	> 100
CN1COc2c(n(C)c(=O)[nH]c2=O)C1	–	> 100
CC1(C)OCC(C(O)C2OC(C)(C)OC2/C=N\O)O1 (stereo unspecified)	–	> 100
CCCCCCN(N)C(=O)CC#N	–	> 100
O=C(O)/C(Cl)=C(\Cl)C(=O)Nc1ccc(Cl)c(Cl)c1Cl	–	32.1
COc1ccc(C(Cl)=C(c2ccc(OCCN(C)C)cc2)c2ccc(OCCN(C)C)cc2)cc1	–	2.53
CC1(C)C2CCC13CS(=O)(=O)N1O[C@]13C(=O)O2 (stereo partly specified)	–	> 100

Test system: M14 melanoma
Experiment: NCI anticancer screen, dose series, 48 h

SMILES	GI50 [µM]	TGI [µM]
COc1ccc(/C=N/NC(=O)Cn2c(-c3ccc(S(C)(=O)=O)cc3)nc3cc(Cl)ccc32)cc1	0.505	> 50
CC1CN1c1c(C(=O)/C=C/c2ccccc2)c(-c2ccccc2)nn(C)c1=O (stereo unspecified)	–	32.8
c1ccc(P(=Nc2ccccc2N=P(c2ccccc2)(c2ccccc2)c2ccccc2)(c2ccccc2)c2ccccc2)cc1	–	15.7
COCCOCOc1ccc(OCOCCOC)c2c1C(=O)c1ccccc1C2=O	–	> 100
CCO/C=C1\N=C(c2ccccc2Br)OC1=O	–	> 100
O=P1(Oc2ccccc2)C(c2ccccc2)C(c2ccccc2)=NN1c1ccccc1 (stereo unspecified)	–	39.6
COc1ccc(C2[C@@H](Cl)C(=O)N2c2cc(OC)c(OC)c(OC)c2)cc1Cl (stereo partly specified)	0.0773	0.712
CCOC(=O)C(=O)Nc1cc(Cl)ccc1Cl	–	> 100
N#Cc1ccc(N=Cc2c([O-])ccc3ccccc23)cc1.[C-]#[O+].[C-]#[O+].[Ir]	5.22	19
[N-]=[N+]=C1C(=O)C2CC3CC(C2)CC1C3	–	> 100
COC(=O)CC1NC(=O)C1C1(C)OCCO1 (stereo unspecified)	–	> 100
COC(CN1C=C(Sc2ccccc2)CC1)OC	–	> 100
CN(C)CCC(/C=C/c1ccccc1)=N\Nc1ccc(Cl)cc1Cl	–	26.6
COc1ccc(C=O)c(NC(=O)C(C)C)c1	–	> 100
Cc1cc2c(c(C(=O)O)c1C)-c1cccc(F)c1C2=O	–	> 100
Cc1ccc(S(=O)OC2C3CC4CC(C3)CC2C4)cc1 (stereo unspecified)	–	> 100
CN(C)c1ccc(/C=C2\C=Cc3ccccc32)cc1	–	> 100
COc1cc2nc(NCCCCCNC(=O)c3ccco3)nc(N)c2cc1OC	–	34.8
Cc1c(C2=C(c3cn(C)c4ccccc34)C(=O)NC2=O)c2ccccc2n1C	1.5	> 25
C/C=C(\C)c1cc(O)c(C)c2c1Oc1cc(O)c(Cl)c(C)c1C(=O)O2	–	43.4
COC(=O)C(C)(C)N=CN(C)C	–	> 100
Cc1cc(N(CCC#N)CCC#N)ccc1/C=C1/N=C(c2ccccc2)N(N)C1=O	–	> 100
CCOC1=C2N=C(Cc3ccccc3F)N=C2C(=O)c2ccccc21	–	> 100
CNS(=O)(=O)NNS(=O)(=O)c1ccc(Cl)cc1	–	> 100
C=C1CCC2[C@@H](CCC3[C@]2(C)CCC[C@]3(C)C(=O)OC)[C@@H]1CC=O (stereo partly specified)	–	40.2
CCCCCCCCCCCCCP(=O)(O)NCC(N)=O	–	> 100
CN1COc2c(n(C)c(=O)[nH]c2=O)C1	–	> 100
CCCCCCN(N)C(=O)CC#N	–	> 100
O=C(O)/C(Cl)=C(\Cl)C(=O)Nc1ccc(Cl)c(Cl)c1Cl	–	32.5
COc1ccc(C(Cl)=C(c2ccc(OCCN(C)C)cc2)c2ccc(OCCN(C)C)cc2)cc1	–	2.92

Test system: HCT-116 colon
Experiment: NCI anticancer screen, dose series, 48 h

SMILES	GI50 [µM]	TGI [µM]
COc1ccc(/C=N/NC(=O)Cn2c(-c3ccc(S(C)(=O)=O)cc3)nc3cc(Cl)ccc32)cc1	0.445	> 50
CC1CN1c1c(C(=O)/C=C/c2ccccc2)c(-c2ccccc2)nn(C)c1=O (stereo unspecified)	–	33.2
c1ccc(P(=Nc2ccccc2N=P(c2ccccc2)(c2ccccc2)c2ccccc2)(c2ccccc2)c2ccccc2)cc1	–	9.64
COCCOCOc1ccc(OCOCCOC)c2c1C(=O)c1ccccc1C2=O	–	> 85.4
O=P1(Oc2ccccc2)C(c2ccccc2)C(c2ccccc2)=NN1c1ccccc1 (stereo unspecified)	–	31.3
COc1ccc(C2[C@@H](Cl)C(=O)N2c2cc(OC)c(OC)c(OC)c2)cc1Cl (stereo partly specified)	0.0721	15.2
CCOC(=O)C(=O)Nc1cc(Cl)ccc1Cl	–	> 100
N#Cc1ccc(N=Cc2c([O-])ccc3ccccc23)cc1.[C-]#[O+].[C-]#[O+].[Ir]	13.2	26
[N-]=[N+]=C1C(=O)C2CC3CC(C2)CC1C3	–	> 100
COC(=O)CC1NC(=O)C1C1(C)OCCO1 (stereo unspecified)	–	> 100
COC(CN1C=C(Sc2ccccc2)CC1)OC	–	> 100
CN(C)CCC(/C=C/c1ccccc1)=N\Nc1ccc(Cl)cc1Cl	–	28.8
COc1ccc(C=O)c(NC(=O)C(C)C)c1	–	31.2
